Data as given in PubChem BioAssay (NCI).
Where “and” joins values, the source holds several entries; their conditions need not be identical. Equal values may be shown once.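 Briefly, cells in 96-well plates were exposed to five compound concentrations for 48 h, and endpoints were estimated by linear interpolation. GI50 = concentration required for 50% inhibition of growth. Definition used: TGI = concentration required for complete inhibition of growth.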 Where a SMILES comes first, the peptide text is derived from it. [ ]: non-standard residue; d: D form. The star is where a group is joined. ξ: configuration not given here. X16 = COC1=CC(=O)N(C(=O)C(O*)C(C)C)C1Cc1ccccc1; ξNMe2Val = CC(C)C(C(=O)*)N(C)C; NMeV = CN[CH](C(=O)O)C(C)C

Experiments:
Experiment in all cases: NCI tumour cell line growth inhibition, 48 h
[1] = tested on: DLD-1 colon
[2] = tested on: DMS 114 small cell lung
[3] = tested on: HOP-18 NSCLC
[4] = tested on: KM20L2 colon
[5] = tested on: LXFL 529 NSCLC
[6] = tested on: SNB-78 CNS
[7] = tested on: XF 498 CNS
[8] = tested on: RXF-631 renal
[9] = tested on: P388 leukemia
[10] = tested on: P388/ADR leukemia
[11] = tested on: SN12K1 renal

SMILES: O=C(CCN1CCCCC1CCO)Nc1ccc2c(c1)C(=O)c1ccc(NC(=O)CCN3CCCCC3CCO)cc1C2=O (configuration not stated)
- TGI [1]: 14.9 µM
- TGI [2]: 14.7 µM
- TGI [3]: 8.41 µM
- TGI [4]: 38 µM
- TGI [5]: 5.65 µM
- TGI [6]: 20.1 µM

SMILES: Cc1ccc(-c2cc(-c3ccco3)nc(N)n2)o1
- TGI [4]: > 100 µM
- TGI [5]: > 100 µM
- TGI [6]: > 100 µM
- TGI [7]: > 100 µM

SMILES: C=CCN1C(=O)CS/C1=N\NC(=O)c1c(C)nc2sccn12
- TGI [1]: > 100 µM
- TGI [2]: > 100 µM
- TGI [3]: > 100 µM
- TGI [4]: > 100 µM
- TGI [5]: > 100 µM
- TGI [8]: > 100 µM
- TGI [7]: > 100 µM

SMILES: O=C(NCCNCCO)N/N=C/c1cccc([N+](=O)[O-])c1
- TGI [1]: > 100 µM
- TGI [2]: > 100 µM
- TGI [3]: > 100 µM
- TGI [4]: > 100 µM
- TGI [5]: > 100 µM
- TGI [6]: > 100 µM

SMILES: C=C1CC2CC[C@@]34C[C@@H]5O[C@@H]6C(O[C@H]7CC[C@H](CC(=O)OC8[C@@H](C)C9OC%10C[C@]%11(C[C@@H]%12O[C@@]%13(C[C@@H](C)[C@@H]%12O%11)C[C@H](C)[C@@H]%11OC%12CC(C(O)CO)OC%12C[C@@H]%11O%13)OC%10CC9O[C@H]8C[C@H]8O[C@@H](CC[C@@H]1O2)C[C@@H](C)C8=C)O[C@@H]7[C@@H]6O3)C5O4 (some centres not stated)
- GI50 [1]: < 0.000148 µM
- TGI [1]: > 1.48 µM
- TGI [2]: 0.00428 µM and 0.0198 µM
- TGI [3]: > 1.48 µM
- GI50 [4]: < 0.000148 µM
- TGI [9]: 0.0156 µM
- TGI [10]: 0.13 µM
- TGI [8]: 0.0034 µM
- TGI [11]: 0.0162 µM
- GI50 [6]: < 0.000148 µM
- TGI [6]: 1.32 µM
- GI50 [7]: < 0.000148 µM

SMILES: COC1/C=C\C=C(/C)C(=O)NC2=CC(=O)C(NCCCl)=C(CC(C)CC(OC)C(O)C(C)/C=C(/C)C1OC(N)=O)C2=O (configuration not stated)
- TGI [1]: 11.6 µM
- TGI [2]: 1.6 µM
- TGI [3]: 1.72 µM
- TGI [4]: 0.385 µM
- TGI [5]: 13.9 µM
- TGI [6]: 19.2 µM
- TGI [7]: 8.85 µM

SMILES: CC1=C/C(=C(\c2ccc(N(C)C)cc2)c2ccc([N+](C)(C)C)cc2)C=CC1=[N+](C)C
- TGI [1]: 45.3 µM
- TGI [2]: 16.1 µM
- TGI [4]: 32.8 µM
- TGI [5]: 22.1 µM
- TGI [8]: 21.4 µM
- TGI [6]: 53.5 µM
- TGI [7]: 10.1 µM

SMILES: CC(C)(C)C1CC[C@H]2c3c([nH]c4ccc(Br)cc34)[C@H]3C(=O)N(c4ccccc4)C(=O)[C@H]3[C@H]2C1 (some centres not stated)
- TGI [1]: > 100 µM
- TGI [2]: 69.1 µM
- TGI [3]: > 100 µM
- TGI [4]: > 100 µM
- TGI [5]: 31.3 µM
- TGI [8]: 19.5 µM
- TGI [6]: 33.4 µM
- TGI [7]: 38.2 µM

SMILES: c1ccc2[nH]c(-c3nc4ccccc4o3)nc2c1
- TGI [1]: > 100 µM
- TGI [2]: > 100 µM
- TGI [4]: > 100 µM
- TGI [5]: > 100 µM
- TGI [6]: > 100 µM
- TGI [7]: > 100 µM

SMILES: COC1=CC(=O)N(C(=O)C(OC(=O)C2CCCN2C(=O)C2CCCN2C(=O)C(C(C)C)N(C)C(=O)C(NC(=O)C(C(C)C)N(C)C)C(C)C)C(C)C)C1Cc1ccccc1 (configuration not stated) (ξNMe2Val-V[NMeV]PP-X16; configuration not given here)
- GI50 [1]: < 0.0004 µM
- TGI [1]: > 4 µM
- GI50 [2]: < 0.0004 µM
- TGI [2]: 0.00601 µM and 0.00714 µM
- GI50 [3]: > 4 µM
- TGI [3]: > 4 µM
- GI50 [4]: < 0.0004 µM
- TGI [10]: 0.556 µM
- TGI [11]: 0.000527 µM
- GI50 [6]: < 0.0004 µM
- TGI [6]: 0.811 µM
- GI50 [7]: < 0.0004 µM

SMILES: CN(C)[C@@H]1C(=O)C(C(N)=O)=C(O)[C@@]2(O)C(=O)C3=C(O)c4c(O)cccc4C[C@H]3C[C@@H]12
- TGI [1]: 10.8 µM
- TGI [2]: 6.41 µM
- TGI [3]: 3.56 µM
- TGI [4]: 6.18 µM
- TGI [5]: 3.88 µM

SMILES: CS(=O)(=O)NNS(=O)(=O)c1ccc(Br)cc1
- TGI [1]: > 100 µM
- TGI [2]: > 100 µM
- TGI [3]: > 100 µM
- TGI [4]: > 100 µM
- TGI [5]: > 100 µM
- TGI [6]: > 100 µM
- TGI [7]: > 100 µM

SMILES: O=c1[nH]cnc2c1nnn2CCCn1nnc2c(=O)[nH]cnc21
- TGI [1]: > 100 µM
- TGI [2]: > 100 µM
- TGI [3]: > 100 µM
- TGI [4]: > 100 µM
- TGI [5]: > 100 µM
- TGI [6]: > 100 µM
- TGI [7]: > 100 µM

SMILES: c1cnc2c(c1)-n1cccc1C1(CCOCC1)NN2
- TGI [1]: > 100 µM
- TGI [2]: > 100 µM
- TGI [3]: > 100 µM
- TGI [4]: > 100 µM
- TGI [5]: > 100 µM
- TGI [7]: > 100 µM

SMILES: COC(=O)/C(=C/c1ccc(OC)cc1)C(C(=O)O)=C(C)C
- TGI [1]: > 100 µM
- TGI [2]: > 100 µM
- TGI [3]: > 100 µM
- TGI [4]: > 100 µM
- TGI [5]: > 100 µM
- TGI [6]: > 100 µM

SMILES: Oc1c(Cl)c2nccnc2c2ccccc12
- TGI [1]: > 100 µM
- TGI [2]: > 100 µM
- TGI [3]: > 100 µM
- TGI [4]: > 100 µM
- TGI [5]: > 100 µM
- TGI [6]: > 100 µM
- TGI [7]: > 100 µM

SMILES: COc1cc2c(cc1O)[C@H](C)C(c1ccc(Cl)cc1)O2 (some centres not stated)
- TGI [1]: 79.6 µM
- TGI [2]: 30.8 µM
- TGI [3]: > 100 µM
- TGI [4]: 66.2 µM
- TGI [5]: 34.7 µM
- TGI [8]: 50.5 µM
- TGI [6]: > 100 µM
- TGI [7]: 29.4 µM

SMILES: On1c(-c2ccccc2)c(-c2c(-c3ccccc3)n(O)c3ccccc23)c2ccccc21
- TGI [1]: > 100 µM
- TGI [2]: 66 µM
- TGI [3]: 86.3 µM
- TGI [5]: 20 µM
- TGI [6]: > 100 µM
- TGI [7]: 71 µM
